Test results reported in ChEMBL document CHEMBL1268934, “Design, synthesis, and subtype selectivity of 3,6-disubstituted β-carbolines at Bz/GABA(A)ergic receptors. SAR and studies directed toward agents for treatment of alcohol abuse” (Bioorg Med Chem, 2010).

Columns and labels:
Type in all cases: cell-based, HEK293
[1] = biological target: T1, GABA-A receptor; alpha-1/beta-3/gamma-2 (Homo sapiens, UniProt P14867+P18507+P28472); assay: Displacement of [3H]flunitrazepam from human recombinant GABAA alpha-1-beta-3-gamma-2 receptor expressed in HEK cells by liquid scintillation counting
T1 sequence (P14867 whole entry): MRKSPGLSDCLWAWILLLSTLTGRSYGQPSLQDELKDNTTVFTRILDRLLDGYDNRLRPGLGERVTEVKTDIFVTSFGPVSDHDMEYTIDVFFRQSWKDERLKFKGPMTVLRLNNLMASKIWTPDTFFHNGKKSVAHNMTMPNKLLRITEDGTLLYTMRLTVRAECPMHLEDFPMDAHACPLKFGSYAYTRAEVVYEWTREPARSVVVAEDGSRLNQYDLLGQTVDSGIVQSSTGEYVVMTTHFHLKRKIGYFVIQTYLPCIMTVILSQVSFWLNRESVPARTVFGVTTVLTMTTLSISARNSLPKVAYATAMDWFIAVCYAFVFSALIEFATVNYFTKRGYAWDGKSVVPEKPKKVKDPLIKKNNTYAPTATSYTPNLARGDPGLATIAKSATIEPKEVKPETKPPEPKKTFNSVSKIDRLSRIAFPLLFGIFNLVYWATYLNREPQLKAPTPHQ
T1 sequence (P18507 whole entry): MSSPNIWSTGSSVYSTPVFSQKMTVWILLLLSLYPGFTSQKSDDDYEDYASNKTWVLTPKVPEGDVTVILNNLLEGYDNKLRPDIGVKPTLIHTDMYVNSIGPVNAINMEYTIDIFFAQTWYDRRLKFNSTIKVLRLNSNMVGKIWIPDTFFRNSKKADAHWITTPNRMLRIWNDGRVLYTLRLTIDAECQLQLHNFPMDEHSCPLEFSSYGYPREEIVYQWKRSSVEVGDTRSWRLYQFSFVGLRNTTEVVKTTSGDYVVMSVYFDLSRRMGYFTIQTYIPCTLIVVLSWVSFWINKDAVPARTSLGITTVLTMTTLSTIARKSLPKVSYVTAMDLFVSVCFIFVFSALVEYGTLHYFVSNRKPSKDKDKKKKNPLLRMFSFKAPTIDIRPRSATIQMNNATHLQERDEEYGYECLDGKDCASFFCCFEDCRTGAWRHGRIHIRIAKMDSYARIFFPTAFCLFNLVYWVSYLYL
T1 sequence (P28472 whole entry): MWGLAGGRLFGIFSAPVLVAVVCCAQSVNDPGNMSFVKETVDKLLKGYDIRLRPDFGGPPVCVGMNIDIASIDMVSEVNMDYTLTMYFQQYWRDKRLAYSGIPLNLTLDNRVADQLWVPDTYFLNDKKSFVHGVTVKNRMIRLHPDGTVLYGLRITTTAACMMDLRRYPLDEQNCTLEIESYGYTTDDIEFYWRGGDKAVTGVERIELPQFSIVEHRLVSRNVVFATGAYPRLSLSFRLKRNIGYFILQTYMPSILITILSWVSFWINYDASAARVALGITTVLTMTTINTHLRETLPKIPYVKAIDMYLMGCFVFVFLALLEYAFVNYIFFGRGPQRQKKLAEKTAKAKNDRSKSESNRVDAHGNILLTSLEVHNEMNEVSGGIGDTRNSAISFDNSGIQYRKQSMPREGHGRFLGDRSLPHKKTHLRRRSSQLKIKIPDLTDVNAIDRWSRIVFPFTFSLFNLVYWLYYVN

[2] = biological target: T2, GABA-A receptor; alpha-3/beta-3/gamma-2 (Homo sapiens, UniProt P18507+P28472+P34903); assay: Displacement of [3H]flunitrazepam from human recombinant GABAA alpha-3-beta-3-gamma-2 receptor expressed in HEK cells by liquid scintillation counting
T2 sequence (P18507 whole entry): T1 sequence (P18507 whole entry)
T2 sequence (P28472 whole entry): T1 sequence (P28472 whole entry)
T2 sequence (P34903 whole entry): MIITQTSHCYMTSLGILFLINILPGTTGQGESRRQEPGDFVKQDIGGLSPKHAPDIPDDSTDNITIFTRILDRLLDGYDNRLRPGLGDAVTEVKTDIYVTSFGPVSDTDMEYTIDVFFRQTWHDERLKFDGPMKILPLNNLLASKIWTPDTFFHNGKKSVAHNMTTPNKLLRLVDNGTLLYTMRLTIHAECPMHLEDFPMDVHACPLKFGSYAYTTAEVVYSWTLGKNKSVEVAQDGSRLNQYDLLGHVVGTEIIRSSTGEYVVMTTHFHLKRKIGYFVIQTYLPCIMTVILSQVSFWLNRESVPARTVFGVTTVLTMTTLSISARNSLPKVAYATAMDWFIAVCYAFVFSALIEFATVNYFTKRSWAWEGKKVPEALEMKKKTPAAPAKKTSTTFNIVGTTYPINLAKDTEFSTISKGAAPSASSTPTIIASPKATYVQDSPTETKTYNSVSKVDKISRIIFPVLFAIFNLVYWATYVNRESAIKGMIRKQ

[3] = biological target: T3, GABA-A receptor; alpha-2/beta-3/gamma-2 (Homo sapiens, UniProt P18507+P28472+P47869); assay: Displacement of [3H]flunitrazepam from human recombinant GABAA alpha-2-beta-3-gamma-2 receptor expressed in HEK cells by liquid scintillation counting
T3 sequence (P18507 whole entry): T1 sequence (P18507 whole entry)
T3 sequence (P28472 whole entry): T1 sequence (P28472 whole entry)
T3 sequence (P47869 whole entry): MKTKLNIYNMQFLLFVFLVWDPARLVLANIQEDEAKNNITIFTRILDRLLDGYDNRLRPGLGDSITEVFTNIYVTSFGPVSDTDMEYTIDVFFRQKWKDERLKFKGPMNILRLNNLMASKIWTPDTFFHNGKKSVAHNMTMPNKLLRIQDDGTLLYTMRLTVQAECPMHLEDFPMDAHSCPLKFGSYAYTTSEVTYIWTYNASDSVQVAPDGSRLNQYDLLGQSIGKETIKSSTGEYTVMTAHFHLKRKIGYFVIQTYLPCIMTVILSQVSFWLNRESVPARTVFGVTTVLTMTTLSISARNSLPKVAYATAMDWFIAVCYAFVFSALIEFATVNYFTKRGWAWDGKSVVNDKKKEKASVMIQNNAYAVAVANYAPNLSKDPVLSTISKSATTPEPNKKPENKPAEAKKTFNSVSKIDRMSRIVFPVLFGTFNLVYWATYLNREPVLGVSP

[4] = biological target: T4, GABA-A receptor; alpha-5/beta-3/gamma-2 (Homo sapiens, UniProt P18507+P28472+P31644); assay: Displacement of [3H]flunitrazepam from human recombinant GABAA alpha-5-beta-3-gamma-2 receptor expressed in HEK cells by liquid scintillation counting
T4 sequence (P18507 whole entry): T1 sequence (P18507 whole entry)
T4 sequence (P28472 whole entry): T1 sequence (P28472 whole entry)
T4 sequence (P31644 whole entry): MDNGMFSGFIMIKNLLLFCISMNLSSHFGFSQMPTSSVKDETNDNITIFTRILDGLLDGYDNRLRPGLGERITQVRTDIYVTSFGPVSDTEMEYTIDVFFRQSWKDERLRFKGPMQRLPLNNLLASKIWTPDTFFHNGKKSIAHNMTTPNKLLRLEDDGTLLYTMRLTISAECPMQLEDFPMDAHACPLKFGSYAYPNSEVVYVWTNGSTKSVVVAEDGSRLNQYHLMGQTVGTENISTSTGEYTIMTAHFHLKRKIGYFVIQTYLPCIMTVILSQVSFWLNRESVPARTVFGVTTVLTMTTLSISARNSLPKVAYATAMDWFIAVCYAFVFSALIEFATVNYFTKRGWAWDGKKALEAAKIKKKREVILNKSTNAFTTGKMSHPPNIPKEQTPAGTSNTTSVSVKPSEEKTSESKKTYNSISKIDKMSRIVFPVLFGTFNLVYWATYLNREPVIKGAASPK

[5] = biological target: GABA-A receptor; alpha-6/beta-3/gamma-2 (Homo sapiens, UniProt P18507+P28472+Q16445); assay: Displacement of [3H]flunitrazepam from human recombinant GABAA alpha-6-beta-3-gamma-2 receptor expressed in HEK cells by liquid scintillation counting
[6] = biological target: GABA A receptor alpha-4/beta-3/gamma-2 (Homo sapiens, UniProt P18507+P28472+P48169); assay: Displacement of [3H]flunitrazepam from human recombinant GABAA alpha-4-beta-3-gamma-2 receptor expressed in HEK cells by liquid scintillation counting
Chain of GABA A receptor alpha-4/beta-3/gamma-2 (P48169 whole entry, one chain of several): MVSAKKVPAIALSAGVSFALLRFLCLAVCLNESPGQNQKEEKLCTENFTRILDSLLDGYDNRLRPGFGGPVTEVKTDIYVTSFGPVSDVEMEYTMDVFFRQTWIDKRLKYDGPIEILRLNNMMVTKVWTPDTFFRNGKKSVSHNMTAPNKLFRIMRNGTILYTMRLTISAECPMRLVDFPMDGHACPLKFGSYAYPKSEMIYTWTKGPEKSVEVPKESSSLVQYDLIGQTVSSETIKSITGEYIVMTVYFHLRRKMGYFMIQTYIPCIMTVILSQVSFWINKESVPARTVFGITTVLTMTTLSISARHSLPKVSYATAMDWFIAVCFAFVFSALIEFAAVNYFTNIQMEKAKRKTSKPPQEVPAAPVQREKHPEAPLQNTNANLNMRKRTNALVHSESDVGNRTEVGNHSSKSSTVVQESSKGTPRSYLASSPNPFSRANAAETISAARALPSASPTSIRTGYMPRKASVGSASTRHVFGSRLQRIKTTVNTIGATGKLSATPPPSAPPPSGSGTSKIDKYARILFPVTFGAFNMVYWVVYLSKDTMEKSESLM

Chain of GABA-A receptor; alpha-6/beta-3/gamma-2 (Q16445 whole entry, one chain of several): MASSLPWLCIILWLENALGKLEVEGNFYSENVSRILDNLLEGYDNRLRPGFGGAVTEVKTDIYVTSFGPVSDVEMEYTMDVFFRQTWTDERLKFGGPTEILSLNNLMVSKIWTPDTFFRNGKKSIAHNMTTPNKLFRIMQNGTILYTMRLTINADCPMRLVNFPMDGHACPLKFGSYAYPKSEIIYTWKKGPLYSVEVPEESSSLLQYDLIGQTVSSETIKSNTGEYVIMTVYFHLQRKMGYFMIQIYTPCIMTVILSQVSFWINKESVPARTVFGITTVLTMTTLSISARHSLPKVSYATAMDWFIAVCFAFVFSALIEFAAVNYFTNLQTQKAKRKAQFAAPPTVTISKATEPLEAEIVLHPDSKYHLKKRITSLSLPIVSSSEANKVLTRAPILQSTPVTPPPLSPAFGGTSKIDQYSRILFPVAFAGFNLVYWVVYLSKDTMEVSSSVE

Structure (SMILES)	Ki [1] [nM]	Ki [2] [nM]	Ki [3] [nM]	Ki [4] [nM]	Ki [5] [nM]	Ki ([6]; hek293)	Ki ([6]; read-out: Ki) [nM]
CCC(C)OC(=O)c1cc2c(cn1)[nH]c1ccccc12 (stereo not given)	18	116	60	216	> 2000	Not Active	
O=C(OCC(F)(F)F)c1cc2c(cn1)[nH]c1ccc(-c3ccco3)cc12	26	117	143	127			
C[Si](C)(C)C#Cc1ccc2[nH]c3cnc(C(=O)OCC(F)(F)F)cc3c2c1	17	88	59	1440	> 3000		200
CCC(OC(=O)c1cc2c(cn1)[nH]c1ccccc12)C(F)(F)F (stereo not given)					> 2000	Not Active	
C#Cc1ccc2[nH]c3cnc(C(=O)OC(C)(C)C)cc3c2c1	0.972				1980		
O=C(OCC(Cl)(Cl)Cl)c1cc2c(cn1)[nH]c1ccccc12	10	43	33	189			
CCC(C)OC(=O)c1cc2c(cn1)[nH]c1ccccc12 (single isomer, unassigned)						Not Active	
CCCC(=O)c1cc2c(cn1)[nH]c1ccc(F)cc12	3.7	40	27	254	> 2500	Not Active	
CC(C)(C)OC(=O)c1cc2c(cn1)[nH]c1ccc(-c3cccs3)cc12	37	314	166	2860		Not Active	
O=C(OCC(F)(F)F)c1cc2c(cn1)[nH]c1ccc(I)cc12	12	47	39	122			
C#Cc1ccc2c(c1)c1cc(C(=O)OC(C)(C)C)ncc1n2C(=O)OC(C)(C)C	450						
CC(C)(C)OC(=O)c1cc2c(cn1)[nH]c1ccc(C(C)(C)C)cc12	2.78	24.5	8.93	7.49			
CC(C)(C)OC(=O)c1cc2c(cn1)[nH]c1ccc(F)cc12	1.62	14.7	4.54	4.61			
CC(C)(C)OC(=O)c1cc2c3cc(I)ccc3n(C(=O)OC(C)(C)C)c2cn1				1850			
CCOC(=O)c1cc2c(cn1)[nH]c1ccc(C#C[Si](C)(C)C)cc12	4.4	5.58	4.5	47			
CC(C)(C)OC(=O)c1cc2c(cn1)[nH]c1ccc(C#CC#Cc3ccc4[nH]c5cnc(C(=O)OC(C)(C)C)cc5c4c3)cc12	120	3940	1060				

Structure (SMILES)	Ki [1] [nM]	Ki [2] [nM]	Ki [3] [nM]	Ki [4] [nM]	Ki [5] [nM]	Ki ([6]; hek293)	Ki ([6]; read-out: Ki) [nM]
C#Cc1ccc2[nH]c3cnc(C(=O)OCC(F)(F)F)cc3c2c1	4.5	42.7	44.6	124			
CC(C)(C)OC(=O)c1cc2c(cn1)[nH]c1ccc(-c3ccccc3)cc12	3.63	44.3	2.02	76.5		Not Active	
CC(C)CCOc1cc2c3ccccc3nc-2c[nH]1		3000	3000	3000	10000		
CC[C@H](C)OC(=O)c1cc2c(cn1)[nH]c1ccccc12					> 2000	Not Active	
O=C(OC(C(F)(F)F)C(F)(F)F)c1cc2c(cn1)[nH]c1ccccc12	3.99	32	8	461			
CC(OC(=O)c1cc2c(cn1)[nH]c1ccccc12)c1ccccc1 (stereo not given)	33.5						
O=C(OCC(F)(F)F)c1cc2c(cn1)[nH]c1ccc(-c3ccccc3)cc12	25	125	137	299			
O=C(Oc1cc(F)c(F)cc1F)c1cc2c(cn1)[nH]c1ccccc12	22	44.8	177	422			
O=C(OC(C(F)(F)F)C(F)(F)F)c1cc2c(cn1)[nH]c1ccc(I)cc12	78	131	301	681			
CCCCOc1cc2c(cn1)[nH]c1ccccc12					1000		
O=C(OCC(F)(F)F)c1cc2c(cn1)[nH]c1ccc(-c3cccs3)cc12	9.2	72	13	449			
CC(C)(C)OC(=O)c1ccc2[nH]c3ccc(C#Cc4ccc5[nH]c6ccc(C(=O)OC(C)(C)C)cc6c5c4)cc3c2c1	30	100	124	> 300	> 4000		
CCOC(=O)c1cc2c(cn1)[nH]c1ccc(I)cc12	4.8	34	31	286			
CC/C=C/C=C/Oc1cc2c(cn1)[nH]c1ccccc12	245	859	818				
CC(C)(C)OC(=O)c1cc2c(cn1)[nH]c1ccc(C#C[Si](C)(C)C)cc12	6.8	36	30	108			
CC(C)(C)OC(=O)c1cc2c(cn1)[nH]c1ccc(-c3ccco3)cc12	2.4	27.5	13	163		Not Active	
